# Measured values from ChEMBL document CHEMBL1201862, “PubChem BioAssay data set” (2004).
# Calls of active or inactive are those of the source.
# What was measured:
# [1] = target: Serine/threonine-protein phosphatase (Candida dubliniensis (strain CD36 / CBS 7987 / NCPF 3949 / NRRLY-17841) (Yeast), UniProt B9W6M3); assay: blockers of CaCl2-induced CDRE-lacZ signaling – S. cerevisiae, luminescence, secondary, dose response (AID 2388); format: functional, cell-based;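 further: yeast reporter cells carrying a calcineurin-responsive lacZ construct stimulated with calcium chloride; luminescent beta-galactosidase reporter signal in whole cells rather than isolated phosphatase activity; potency for inhibition where a drop in reporter signal means calcineurin blockade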
# [2] = target: ATP-dependent molecular chaperone HSP82 (Candida albicans (strain WO-1) (Yeast), UniProt C4YTQ8); assay: steroid-induced GRE reporter decrease in yeast – S. cerevisiae, luminescence, Hsp90 inhibitor project, dose response (AID 2400); format: functional, cell-based;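 further: beta-galactosidase luminescence from glucocorticoid response element reporter as proxy for Hsp90 function; inhibitor potency where signal loss means Hsp90 inhibition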
# [3] = viability of HCT116 lacking mutant beta-catenin – cell-based, human colon tumor, dose response (AID 1045); format: functional;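 further: HCT116 colon tumor cells with beta catenin knocked out; cells exposed to compound for 60 hours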
# Nonstructural protein 1 = Nonstructural protein 1 (Influenza A virus, UniProt Q194T2); format: functional, Influenza A virus (A/California/07/2009(H1N1))
# [4] = Trypanosoma cruzi growth suppression in host cells – NIH3T3 host cells, beta-gal luminescence, confirmation (AID 2044); format: functional, cell-based;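 further: intracellular parasites grown in NIH/3T3 mouse fibroblasts as host cells; luminescent beta-galactosidase reporter signal from transgenic T. cruzi replicating inside host cells; inhibitors lower the luminescence signal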
# [5] = NIH-3T3 fibroblast cytotoxicity, dose response, cytotoxicity control, cell-based, fluorescence, Alamar Blue, secondary assay (AID 2327); format: functional;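 further: NIH-3T3 mouse fibroblasts cultured with fluconazole at 8 µg/mL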
# [6] = target: T1, Heat shock factor protein 1 (Mus musculus, UniProt P38532); assay: decrease of HSF1-responsive luciferase luminescence – cell-based, NIH3T3, dose retest, confirmation (AID 2382); format: functional;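 further: NIH3T3 fibroblasts with HSF1-driven luciferase reporter stressed by proteasome inhibitor MG132; luminescence from HSF1-driven luciferase expression after 8 hours of MG132 stress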
# T1 sequence (P38532 whole entry): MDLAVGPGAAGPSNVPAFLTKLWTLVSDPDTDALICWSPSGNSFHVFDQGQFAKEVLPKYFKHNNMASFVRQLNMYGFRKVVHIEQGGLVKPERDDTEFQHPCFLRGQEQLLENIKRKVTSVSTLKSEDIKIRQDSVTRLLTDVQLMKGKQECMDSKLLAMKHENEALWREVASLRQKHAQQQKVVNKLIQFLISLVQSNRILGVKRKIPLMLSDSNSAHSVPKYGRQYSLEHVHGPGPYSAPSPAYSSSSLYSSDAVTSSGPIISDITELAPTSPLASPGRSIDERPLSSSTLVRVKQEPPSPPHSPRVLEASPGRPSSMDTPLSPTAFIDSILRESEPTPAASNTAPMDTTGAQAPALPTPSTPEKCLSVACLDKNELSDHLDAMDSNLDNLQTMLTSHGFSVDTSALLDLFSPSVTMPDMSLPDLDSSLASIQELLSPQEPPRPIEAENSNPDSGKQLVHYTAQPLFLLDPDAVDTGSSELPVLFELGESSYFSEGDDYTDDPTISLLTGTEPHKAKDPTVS
# [7] = viability of PTEN-deleted HCT116 cells – cell-based, HCT116 PTEN knockout, dose response (AID 1047); format: functional;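 further: HCT116 colon tumor cells with PTEN knocked out; cells exposed to compound for 60 hours before readout; potency for loss of cell viability measured by luminescence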
# Estrogen receptor beta = Estrogen receptor beta (Homo sapiens, UniProt Q92731); assay: blockers of SRC-3 recruitment to ERβ – biochemical, ELISA, streptavidin-HRP readout, orthogonal assay, confirmation (AID 1060)
# [8] = target: T2, Replicative DNA helicase DnaB (Mycobacterium tuberculosis, UniProt P9WMR3); assay: DnaB intein splicing inhibitors, dose response, biochemical, cell-free fluorescence (AID 449749); format: functional
# T2 sequence (P9WMR3 whole entry): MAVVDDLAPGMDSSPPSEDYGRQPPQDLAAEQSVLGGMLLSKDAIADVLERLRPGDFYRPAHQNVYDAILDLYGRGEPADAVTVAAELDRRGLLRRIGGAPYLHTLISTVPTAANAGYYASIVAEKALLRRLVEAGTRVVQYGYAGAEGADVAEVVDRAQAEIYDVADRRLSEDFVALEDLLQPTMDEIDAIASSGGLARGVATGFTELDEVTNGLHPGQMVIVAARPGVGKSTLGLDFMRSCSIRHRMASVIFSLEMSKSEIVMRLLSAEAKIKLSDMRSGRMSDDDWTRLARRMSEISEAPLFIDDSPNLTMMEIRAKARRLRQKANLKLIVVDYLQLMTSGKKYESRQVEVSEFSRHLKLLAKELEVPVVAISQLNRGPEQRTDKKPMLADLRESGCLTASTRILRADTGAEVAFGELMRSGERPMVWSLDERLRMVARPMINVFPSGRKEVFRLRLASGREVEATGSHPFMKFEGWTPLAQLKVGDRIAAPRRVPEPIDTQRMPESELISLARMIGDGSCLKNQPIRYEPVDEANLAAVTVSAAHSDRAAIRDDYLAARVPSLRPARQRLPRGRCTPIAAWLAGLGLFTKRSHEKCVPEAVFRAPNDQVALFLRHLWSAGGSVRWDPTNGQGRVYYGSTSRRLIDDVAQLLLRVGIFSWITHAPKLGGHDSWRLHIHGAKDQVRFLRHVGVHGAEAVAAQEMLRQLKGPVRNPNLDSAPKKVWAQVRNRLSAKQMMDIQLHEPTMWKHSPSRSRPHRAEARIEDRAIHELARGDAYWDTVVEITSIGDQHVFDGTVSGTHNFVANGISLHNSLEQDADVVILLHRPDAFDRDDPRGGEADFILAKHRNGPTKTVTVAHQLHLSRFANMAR
# Protein RecA = target: T3, Protein RecA (Mycobacterium tuberculosis, UniProt P9WHJ3); assay: Fluorescence Cell-Free Homogeneous Dose Retest to Identify Inhibitors of RecA-Intein Splicing Activity. [Related pubchem assays (depositor defined):AID2097, AID2223, AID489010, AID492950]; format: functional
# T3 sequence (P9WHJ3 whole entry): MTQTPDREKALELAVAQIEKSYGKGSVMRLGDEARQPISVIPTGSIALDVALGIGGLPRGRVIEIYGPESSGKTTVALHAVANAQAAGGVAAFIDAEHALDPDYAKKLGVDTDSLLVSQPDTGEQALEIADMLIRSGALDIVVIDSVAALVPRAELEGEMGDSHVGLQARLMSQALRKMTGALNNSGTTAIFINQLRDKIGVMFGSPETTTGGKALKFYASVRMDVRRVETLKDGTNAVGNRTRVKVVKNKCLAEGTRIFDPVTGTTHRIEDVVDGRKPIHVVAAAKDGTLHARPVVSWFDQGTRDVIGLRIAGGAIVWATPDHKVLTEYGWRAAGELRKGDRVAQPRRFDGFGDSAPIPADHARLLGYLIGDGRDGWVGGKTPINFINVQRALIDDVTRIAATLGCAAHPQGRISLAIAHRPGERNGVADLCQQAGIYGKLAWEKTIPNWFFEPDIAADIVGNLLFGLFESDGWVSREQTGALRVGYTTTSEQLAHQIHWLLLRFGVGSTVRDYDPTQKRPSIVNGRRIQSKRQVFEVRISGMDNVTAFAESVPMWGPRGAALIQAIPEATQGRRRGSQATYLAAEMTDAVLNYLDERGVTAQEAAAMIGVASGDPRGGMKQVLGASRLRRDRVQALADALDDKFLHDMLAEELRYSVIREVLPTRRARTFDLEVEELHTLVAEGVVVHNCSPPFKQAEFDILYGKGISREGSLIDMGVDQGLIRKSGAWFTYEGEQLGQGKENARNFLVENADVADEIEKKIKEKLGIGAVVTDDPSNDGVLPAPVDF
# [9] = fluconazole-exposed Candida albicans growth modulators – fluorescence, retest, confirmation (AID 2467); format: functional, cell-based
# [10] = NIH3T3 cell viability loss – ATP luminescence, mouse fibroblasts, counter-screen, dose response (AID 2010); format: functional, cell-based;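 further: cells exposed to compound for about 90 hours before reading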
# Cytochrome P450 2C19 = Cytochrome P450 2C19 (Homo sapiens, UniProt P33261); assay: Cytochrome panel assay with activity outcomes. Panel member name: p450-cyp2c19 Compounds with AC50 equal or less than 10 uM are considered active; format: functional; conditions: read-out: AC50
# [11] = target: T4, Short transient receptor potential channel 4 (Mus musculus, UniProt Q9QUQ5); assay: calcium entry via TRPC4 opening agents – cell-based, HEK293 TRPC4/mu-opioid, Fluo-4 calcium, dose response (AID 434937); format: functional
# T4 sequence (Q9QUQ5 whole entry): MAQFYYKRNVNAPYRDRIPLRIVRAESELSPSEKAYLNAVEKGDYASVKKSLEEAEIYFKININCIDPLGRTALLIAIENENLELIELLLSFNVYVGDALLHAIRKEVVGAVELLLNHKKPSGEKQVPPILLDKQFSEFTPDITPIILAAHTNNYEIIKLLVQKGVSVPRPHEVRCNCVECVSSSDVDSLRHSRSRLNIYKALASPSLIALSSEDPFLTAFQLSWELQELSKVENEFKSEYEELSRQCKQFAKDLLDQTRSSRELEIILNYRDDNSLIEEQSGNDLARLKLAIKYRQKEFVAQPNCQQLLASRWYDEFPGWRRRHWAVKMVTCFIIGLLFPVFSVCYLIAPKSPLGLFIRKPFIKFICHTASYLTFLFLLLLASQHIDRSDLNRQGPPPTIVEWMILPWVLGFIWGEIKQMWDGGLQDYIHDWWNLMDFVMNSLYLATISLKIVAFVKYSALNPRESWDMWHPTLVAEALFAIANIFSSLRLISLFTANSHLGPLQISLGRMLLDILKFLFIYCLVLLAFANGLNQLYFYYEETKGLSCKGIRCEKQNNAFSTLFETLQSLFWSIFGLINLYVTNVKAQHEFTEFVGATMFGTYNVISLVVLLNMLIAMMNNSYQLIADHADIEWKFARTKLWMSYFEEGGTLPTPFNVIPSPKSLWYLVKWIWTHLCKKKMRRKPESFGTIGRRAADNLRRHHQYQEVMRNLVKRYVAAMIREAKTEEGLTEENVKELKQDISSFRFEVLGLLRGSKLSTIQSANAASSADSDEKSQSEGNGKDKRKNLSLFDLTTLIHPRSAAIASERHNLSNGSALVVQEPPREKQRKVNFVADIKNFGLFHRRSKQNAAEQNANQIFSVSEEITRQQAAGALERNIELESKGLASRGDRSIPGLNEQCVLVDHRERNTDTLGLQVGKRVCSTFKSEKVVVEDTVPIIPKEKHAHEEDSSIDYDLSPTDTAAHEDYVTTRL
# Mu-type opioid receptor = Mu-type opioid receptor (Homo sapiens, UniProt P35372); assay: (§1) Counterscreen for agonists of heterodimerization of the mu 1 (OPRM1) and delta 1 (OPRD1) opioid receptors: Luminescence-based cell-based high throughput dose response assay to identify agonists of OPRM1 homodimerization.; format: functional
# [12] = target: 5-hydroxytryptamine receptor 5A (Homo sapiens, UniProt P47898); assay: Counterscreen for agonists of OPRM1-OPRD1 heterodimerization: luminescence-based cell-based high throughput dose response assay to identify agonists of 5-hydroxytryptamine (serotonin) 5A receptor (HTR5A). [Related pubchem assays (depositor defined):AID504326, AID504355, AID504692, AID504904, AID504905]; format: functional
# Cytochrome P450 3A4 = Cytochrome P450 3A4 (Homo sapiens, UniProt P08684);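 further: CYP3A4 tested as one member of a cytochrome P450 panel screen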
# [13] = target: Delta-type opioid receptor (Homo sapiens, UniProt P41143); assay: as §1, with “of OPRD1” for “of OPRM1”, “homodimerization. [Related pubchem assays (depositor defined):AID504326, AID504355, AID504692, AID504904, AID504905]” for “homodimerization.”; format: functional
# [14] = target: T4, Short transient receptor potential channel 4; assay: block of DAMGO-driven TRPC4 calcium entry – cell-based, HEK293 TRPC4/mu-opioid, Fluo-4 calcium, dose response (AID 434942); format: functional;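 further: potency of inhibitors blocking the TRPC4 calcium response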
# Chain of ATP-dependent molecular chaperone HSP82 (C4YTQ8 whole entry): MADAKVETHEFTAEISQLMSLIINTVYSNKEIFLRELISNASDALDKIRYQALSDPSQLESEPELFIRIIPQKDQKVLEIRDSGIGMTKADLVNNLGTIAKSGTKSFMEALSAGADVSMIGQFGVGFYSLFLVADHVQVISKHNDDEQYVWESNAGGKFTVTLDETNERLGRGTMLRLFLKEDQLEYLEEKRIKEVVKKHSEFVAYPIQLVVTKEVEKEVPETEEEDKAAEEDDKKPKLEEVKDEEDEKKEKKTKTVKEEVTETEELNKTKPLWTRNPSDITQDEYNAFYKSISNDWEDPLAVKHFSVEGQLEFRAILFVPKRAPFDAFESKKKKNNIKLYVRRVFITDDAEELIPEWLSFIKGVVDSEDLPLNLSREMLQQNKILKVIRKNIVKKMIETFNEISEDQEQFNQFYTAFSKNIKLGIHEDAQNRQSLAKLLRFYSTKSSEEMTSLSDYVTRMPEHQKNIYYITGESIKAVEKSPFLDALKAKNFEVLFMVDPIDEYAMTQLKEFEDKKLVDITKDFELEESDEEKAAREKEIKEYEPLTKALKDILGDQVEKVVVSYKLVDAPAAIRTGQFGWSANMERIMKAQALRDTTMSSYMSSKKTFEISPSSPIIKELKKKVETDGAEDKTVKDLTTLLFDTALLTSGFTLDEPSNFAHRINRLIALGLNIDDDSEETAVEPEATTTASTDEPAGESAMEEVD
# Chain of Serine/threonine-protein phosphatase (B9W6M3 whole entry): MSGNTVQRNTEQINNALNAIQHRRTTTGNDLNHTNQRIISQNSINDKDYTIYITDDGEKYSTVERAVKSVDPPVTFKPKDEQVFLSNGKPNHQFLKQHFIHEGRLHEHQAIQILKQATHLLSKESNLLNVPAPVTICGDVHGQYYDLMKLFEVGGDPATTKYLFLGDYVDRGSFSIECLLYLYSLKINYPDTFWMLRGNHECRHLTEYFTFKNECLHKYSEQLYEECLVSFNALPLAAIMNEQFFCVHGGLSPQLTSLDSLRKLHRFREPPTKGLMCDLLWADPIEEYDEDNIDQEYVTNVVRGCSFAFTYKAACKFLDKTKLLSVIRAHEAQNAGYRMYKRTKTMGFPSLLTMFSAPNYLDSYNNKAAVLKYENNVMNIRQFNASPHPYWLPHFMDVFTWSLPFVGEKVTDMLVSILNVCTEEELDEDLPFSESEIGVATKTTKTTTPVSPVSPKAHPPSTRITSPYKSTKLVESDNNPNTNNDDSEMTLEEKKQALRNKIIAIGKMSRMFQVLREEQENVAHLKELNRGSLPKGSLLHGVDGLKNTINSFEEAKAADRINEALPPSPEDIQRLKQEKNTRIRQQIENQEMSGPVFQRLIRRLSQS
# Chain of Cytochrome P450 2C19 (P33261 whole entry): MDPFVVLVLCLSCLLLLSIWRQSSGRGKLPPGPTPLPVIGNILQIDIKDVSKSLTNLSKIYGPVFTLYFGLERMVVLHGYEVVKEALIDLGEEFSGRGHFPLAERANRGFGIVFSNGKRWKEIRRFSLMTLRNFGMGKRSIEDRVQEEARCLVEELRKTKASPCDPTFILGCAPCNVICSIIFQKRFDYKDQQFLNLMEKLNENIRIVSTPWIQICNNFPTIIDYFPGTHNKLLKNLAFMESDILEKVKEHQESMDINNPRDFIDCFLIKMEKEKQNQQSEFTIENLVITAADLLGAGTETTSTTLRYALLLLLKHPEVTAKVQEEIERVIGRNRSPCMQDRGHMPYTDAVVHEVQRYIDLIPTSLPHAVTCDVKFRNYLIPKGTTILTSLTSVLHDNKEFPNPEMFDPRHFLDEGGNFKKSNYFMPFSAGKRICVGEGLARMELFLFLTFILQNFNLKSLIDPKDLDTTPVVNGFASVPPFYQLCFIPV
# Chain of Delta-type opioid receptor (P41143 whole entry): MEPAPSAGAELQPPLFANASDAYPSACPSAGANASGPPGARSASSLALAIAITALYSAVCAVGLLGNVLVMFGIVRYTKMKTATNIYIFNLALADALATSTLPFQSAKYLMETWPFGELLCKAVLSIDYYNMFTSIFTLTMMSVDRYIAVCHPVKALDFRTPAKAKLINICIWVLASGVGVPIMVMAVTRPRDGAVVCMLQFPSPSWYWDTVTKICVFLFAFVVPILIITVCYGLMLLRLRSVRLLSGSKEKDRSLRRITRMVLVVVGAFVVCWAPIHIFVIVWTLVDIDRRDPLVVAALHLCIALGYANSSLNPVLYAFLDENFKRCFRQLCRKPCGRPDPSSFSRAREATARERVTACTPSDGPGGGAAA
# Chain of Nonstructural protein 1 (Q194T2 whole entry): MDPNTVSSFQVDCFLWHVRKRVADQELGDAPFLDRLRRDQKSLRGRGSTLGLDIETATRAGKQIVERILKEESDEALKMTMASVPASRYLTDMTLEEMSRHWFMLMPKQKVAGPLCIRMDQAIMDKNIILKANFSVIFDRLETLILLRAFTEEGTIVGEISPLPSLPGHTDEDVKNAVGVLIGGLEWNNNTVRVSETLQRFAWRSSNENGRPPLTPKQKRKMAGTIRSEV
# Chain of 5-hydroxytryptamine receptor 5A (P47898 whole entry): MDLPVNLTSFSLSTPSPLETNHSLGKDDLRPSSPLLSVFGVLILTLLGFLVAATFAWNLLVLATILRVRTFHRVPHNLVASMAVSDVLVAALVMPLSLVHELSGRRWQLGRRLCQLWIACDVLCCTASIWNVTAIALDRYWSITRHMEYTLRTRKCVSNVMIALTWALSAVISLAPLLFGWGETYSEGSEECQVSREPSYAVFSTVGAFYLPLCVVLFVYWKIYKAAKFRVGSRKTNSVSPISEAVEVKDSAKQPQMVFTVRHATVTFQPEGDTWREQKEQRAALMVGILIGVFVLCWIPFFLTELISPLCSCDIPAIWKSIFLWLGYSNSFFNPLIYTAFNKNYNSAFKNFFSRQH
# Chain of Estrogen receptor beta (Q92731 whole entry): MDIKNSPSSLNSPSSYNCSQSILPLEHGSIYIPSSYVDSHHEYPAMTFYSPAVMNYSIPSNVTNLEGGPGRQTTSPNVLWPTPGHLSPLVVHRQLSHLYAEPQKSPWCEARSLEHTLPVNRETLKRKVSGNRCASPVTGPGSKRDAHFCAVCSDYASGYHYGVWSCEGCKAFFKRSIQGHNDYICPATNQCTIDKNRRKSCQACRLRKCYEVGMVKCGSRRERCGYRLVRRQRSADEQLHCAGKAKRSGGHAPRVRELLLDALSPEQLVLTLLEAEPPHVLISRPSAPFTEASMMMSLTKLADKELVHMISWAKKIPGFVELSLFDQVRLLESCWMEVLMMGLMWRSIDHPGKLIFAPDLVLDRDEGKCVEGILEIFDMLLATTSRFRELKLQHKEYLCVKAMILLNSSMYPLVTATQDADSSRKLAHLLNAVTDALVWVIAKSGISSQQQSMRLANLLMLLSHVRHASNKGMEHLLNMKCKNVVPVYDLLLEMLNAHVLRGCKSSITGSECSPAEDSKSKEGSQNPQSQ
# Chain of Mu-type opioid receptor (P35372 whole entry): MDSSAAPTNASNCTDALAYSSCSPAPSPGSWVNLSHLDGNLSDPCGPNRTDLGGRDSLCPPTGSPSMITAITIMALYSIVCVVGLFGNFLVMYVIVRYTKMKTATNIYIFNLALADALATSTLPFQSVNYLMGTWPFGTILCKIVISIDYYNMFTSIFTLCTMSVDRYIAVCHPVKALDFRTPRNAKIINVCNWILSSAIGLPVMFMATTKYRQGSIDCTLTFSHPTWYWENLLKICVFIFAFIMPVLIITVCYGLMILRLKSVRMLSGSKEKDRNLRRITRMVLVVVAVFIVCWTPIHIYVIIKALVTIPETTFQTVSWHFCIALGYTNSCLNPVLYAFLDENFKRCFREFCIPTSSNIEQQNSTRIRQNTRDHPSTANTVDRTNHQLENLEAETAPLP
# Chain of Cytochrome P450 3A4 (P08684 whole entry): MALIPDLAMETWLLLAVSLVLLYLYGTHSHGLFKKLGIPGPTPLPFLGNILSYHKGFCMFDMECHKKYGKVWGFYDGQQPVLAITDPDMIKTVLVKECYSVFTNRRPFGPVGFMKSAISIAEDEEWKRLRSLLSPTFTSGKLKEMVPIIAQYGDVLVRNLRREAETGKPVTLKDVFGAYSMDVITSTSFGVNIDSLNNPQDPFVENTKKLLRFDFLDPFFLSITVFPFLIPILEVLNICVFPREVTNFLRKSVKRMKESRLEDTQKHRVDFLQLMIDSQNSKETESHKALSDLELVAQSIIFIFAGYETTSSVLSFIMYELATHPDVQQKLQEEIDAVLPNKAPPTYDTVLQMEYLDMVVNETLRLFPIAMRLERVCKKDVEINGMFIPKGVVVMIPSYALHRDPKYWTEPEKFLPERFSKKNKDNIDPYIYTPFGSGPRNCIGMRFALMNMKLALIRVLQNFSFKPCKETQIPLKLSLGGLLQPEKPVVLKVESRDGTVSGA
Compound,EC50 [1],EC50 [2],EC50 [3],IC50 (Nonstructural protein 1),EC50 [4],EC50 [5],EC50 [6],EC50 [7],IC50 (Estrogen receptor beta),AC50 [8],EC50 (Protein RecA),EC50 [9],EC50 [10],AC50 (Cytochrome P450 2C19),EC50 [11],EC50 (Mu-type opioid receptor),EC50 [12],AC50 (Cytochrome P450 3A4),EC50 [13],EC50 [14]
CCn1c(Sc2nc(C)nc3scc(-c4cccs4)c23)n[nH]c1=O,> 180 µM (inactive),30.7 µM (active),,,,,,,,,,,,,,,,,,
CCN1CCN(C(c2cccnc2)c2cc(Cl)c3cccnc3c2O)CC1 (configuration not stated),> 180 µM (inactive),> 150 µM (inactive),15.1 µM (active),17.8 µM (active),2.13 µM (active),> 150 µM (inactive),> 195 µM (not active),12.7 µM (active),2.39 µM (not active),> 380 µM (inactive),1.8 µM (active),916 nM (active),> 60 µM (not active),,,,,,,
CN1C2C=C(N(CCc3c[nH]c4ccccc34)C(=O)c3ccc(Cl)cc3)CC1CC2 (configuration not stated),,,,,,,,,,,,,,5.01 µM (inconclusive),596 nM (active),47.9 µM (inactive),> 92.5 µM (inactive),17.8 µM (inconclusive),> 92.5 µM (inactive),211 nM (active)
